Source: patent publication US9549746B2, “Delivery device and method” (THE QUEEN'S UNIVERSITY OF BELFAST, priority 2007, dated 2017)

Assay: Delivery across full thickness murine skin in a Franz diffusion cell from drug reservoir with integrated PMVMA microneedle array
Details: reservoir 19.0 mg TMP cm^-2 attached to PMVMA microneedle array; receiver compartment followed over 25 hours; FIG. 11
Procedure: In this study, a matrix-type drug reservoir containing 19.0 mg TMP cm^−2 was prepared and attached to a poly(methylvinylether/maleic acid-co-glyceride) (PMVMA) microneedle array. This system was pressed into full thickness murine skin, mounted as the barrier membrane in a Franz diffusion cell, with the aid of gentle pressure. TMP appearing in the receiver compartment was determined by fluorescence spectroscopy over a period of 25 hours.
An identical experiment to that described in Example 3 was performed again. The only difference was that the small very water soluble photosensitiser precursor 5-aminolevulinc acid (ALA, MW 167 Da) was used instead of TMP.

In the case of `C[n+]1ccc(-c2c3nc(c(-c4cc[n+](C)cc4)c4ccc([nH]4)c(-c4cc[n+](C)cc4)c4nc(c(-c5cc[n+](C)cc5)c5ccc2[nH]5)C=C4)C=C3)cc1.Cc1ccc(S(=O)(=O)[O-])cc1.Cc1ccc(S(=O)(=O)[O-])cc1.Cc1ccc(S(=O)(=O)[O-])cc1.Cc1ccc(S(=O)(=O)[O-])cc1` [TMP, meso-Tetra (N-methyl-4-pyridyl) porphine tetra tosylate], the “delivery of TMP across full thickness skin” value is reported as “sustained delivery of TMP across full thickness skin is possible”.
